In ChEMBL document CHEMBL3860042, “Nucleoside Phosphate and Phosphonate Prodrug Clinical Candidates” (J Med Chem, 2016):

Key:
[1] = Half life in rhesus monkey at 10 mg/kg, iv; type: ADME, organism-based, Macaca mulatta; details: in vivo
[2] = test system: Ebolavirus; test: Antiviral activity against Ebolavirus infected in PBMC (unknown origin) assessed as reduction in viral replication after 24 hrs; type: functional
[3] = test system: Ebolavirus; test: Antiviral activity against Ebolavirus assessed as reduction in viral replication; type: functional; details: Orthoebolavirus
[4] = Drug metabolism in PBMC (unknown origin) assessed as half life for active triphosphate formation; type: ADME, cell-based
[5] = test system: Ebolavirus; test: Antiviral activity against Ebolavirus infected in rhesus monkey assessed as protection against viral disease administered intravenously as once daily regimen; type: functional
[6] = organism: Mus musculus; test: Toxicity in mouse assessed as body weight loss; type: organism-based; details: in vivo
[7] = Toxicity in patients with solid malignancies assessed as incidence of fatigue; details: human, in vivo
[8] = Toxicity in patients with solid malignancies assessed as incidence of anemia; details: human, in vivo
[9] = Toxicity in patients with solid malignancies assessed as incidence of transaminitis; details: human, in vivo
[10] = Toxicity in patients with solid malignancies assessed as incidence of thrombocytopenia; details: human, in vivo
[11] = Tmax in human at 0.025 to 2 mg/kg dosed as single and multiple doses; type: ADME, organism-based; details: in vivo
[12] = Half life in human at 1.5 mg/kg dosed as single and multiple doses; type: ADME, organism-based; details: in vivo
[13] = Half life in human at 0.025 mg/kg dosed as single and multiple doses; type: ADME, organism-based; details: in vivo

CCC(CC)OC(=O)[C@H](C)N[P@@](=O)(OC[C@H]1O[C@@](C#N)(c2ccc3c(N)ncnn23)[C@H](O)[C@@H]1O)Oc1ccccc1
half-life [1]: 0.39 h
inhibition (INH) [2]: >50%
EC50 [3]: 60 to 140 nM
t1/2 [4]: 14 h
Activity [5]: 100%

C[C@H](NP(=O)(OC[C@H]1O[C@@H](n2ccc(N)nc2=O)C(F)(F)[C@@H]1O)Oc1ccccc1)C(=O)OCc1ccccc1 (some centres undefined) [FOSGEMCITABINE PALABENAMIDE]
Activity [6]: < 2%
Activity [7]: 67%
Activity [8]: 67%
Activity [9]: 64%
Activity [10]: 53%

N#C[C@@]1(c2ccc3c(N)ncnn23)O[C@H](CO)[C@@H](O)[C@H]1O [GS-441524]
EC50 [3]: 770 to 20000 nM

CCCCCCCCCCCCCCCCOCCCOP(=O)(O)CO[C@H](CO)Cn1ccc(N)nc1=O [BRINCIDOFOVIR]
Tmax [11]: 7 to 15 h
half-life [12]: 32.7 h
half-life [13]: 6.15 h
